Assays:
[1] = tested on: 5-LO product formation in human M1 macrophages; experiment: Determination of LO products in human macrophages; assay type: cell-based; conditions: 10 µM, activated by Staphylococcus aureus for 90 min
Procedure: Figure S4. Human monocyte-derived macrophages were pre-treated with test compounds (10 µM) or vehicle 15 min prior stimulation. Cells were then stimulated with S. aureus for 90 min. Data are expressed as percentage of the mean of the 100% control DMSO of n=3 experiments. […]
Determination of LO products in human macrophages
Human M1 macrophages (2 x 10^6 /mL) were pre-treated with test compounds or vehicle (DMSO, 0.1%) for 15 min. Afterward, 1% Staphylococcus aureus 6850wt-conditioned medium (SACM) was added for 90 minutes at 37 °C in order to induce LO product formation. The reaction was stopped by transferring supernatants (1 mL) into 2 mL ice-cold MeOH. After addition of the deuterated LM standards (200 nM d8-5S-HETE, d4-LTB4, d5-LXA4, d5-RvD2, d4-PGE2 and 10 µM d8-AA; Cayman Chemical/Biomol GmbH, Hamburg, Germany), samples were kept at −20 °C for 60 min and then centrifuged (1,200×g, 4°C, 10 min). Solid-phase C18 cartridges were equilibrated with 6 mL methanol before the addition of 6 mL H2O. Then, 9 mL acidified H2O (pH 3.5, HCl) was added, and the samples were loaded onto the conditioned C18 columns that were subsequently washed with 6 mL H2O, followed by 6 mL n-hexane. The LM were eluted with 6 mL of methyl formate, samples were brought to dryness using an evaporation system (TurboVap LV, Biotage) and immediately […]
resuspended in methanol-water (50:50 vol/vol) for UPLC-MS-MS automated injections. The UPLC-MS-MS system consisted of an Acquity UPLC BEH C18 column (1.7 µm, 2.1 × 50 mm, Waters) and an AcquityTM UPLC (Waters) as well as a QTRAP 5500 mass spectrometer (Sciex, Darmstadt, Germany) equipped with an electrospray ionization source. The QTrap 5500 was operated in negative ionization mode using scheduled multiple reaction monitoring (MRM) coupled with the information-dependent acquisition (IDA) and an enhanced product ion scan (EPI). The scheduled MRM window was 90 s, and each LM parameter was optimized individually. LOX product analysis, using an MRM method with diagnostic ion fragments and identification, was performed as described previously.922 […]
Following incubations of 24 h, cells were collected with a cell scraper and, after centrifugation at 14000 × g for 10 min at 4 °C, the supernatant was collected and stored at −80°C for ELISA analysis 1023.
Male CD-1 mice (25–30 g of weight) were obtained from Charles River (Milan, Italy) and kept in an animal care facility under controlled temperature, humidity, with ad libitum access to water and standard laboratory chow diet. All experimental procedures were carried out according to the international and national law and policies (EU Directive 2010/63/EU for animal experiments, ARRIVE guidelines, and the Basel declaration including the 3R concept)11,1224, 25. […]

[2] = tested on: PGE2 production in IL-1β-stimulated A549 cells; experiment: Inhibition of PGE2 production in IL-1β-stimulated A549 cells; assay type: cell-based, human; conditions: A549, IL-1β 10 ng/mL, 5 and 10 μM, 24 h, ELISA
Procedure: Figure 3 (A) A549 cells in conditioned medium (1% FBS and 10 ng/mL IL-1β) were incubated for 24 h with 5 and 10 μM of compound 3, 6, 7, and 9. PGE2 released into the medium was quantified using a specific ELISA. Control cells were stimulated with IL-1β, treated with vehicle (DMSO), and expressed as mean ± SEM (pg/mL), n = 2. (B) A549 cell line was used to perform a MTT assay. A549 were treated with 3, 6, 7, and 9 (test compounds, 10 μM), staurosporine (1 μM, positive control), or vehicle (0.1% DMSO) for 48 h. (C) Human monocytes were used to perform a MTT assay. Cells were treated with 3, 6, 7, and 9 (test compounds, 10 μM), Triton X-100 (1%, positive control), or vehicle (0.5% DMSO) for 24 h. Data are expressed as a percentage of control (100%), means, SEM, n = 3.
Carslbad, CA, USA), in 5% CO2 humid atmosphere. The cells were subcultured every 2 days and were tested for Mycoplasma using PCR analysis.Inhibition of PGE2 production in cells A549 cells were plated at 10.000 cells/well in DMEM with 10% FBS-medium in a 96-well plate; after overnight incubation, the cells were treated with 5 and 10 µM of 3, 6, 7, 9 compounds in DMEM 1%FBS and IL-1β (10 ng/ml) to upregulate PG synthase expression.
After 24 h, the amount of PGE2 released in the supernatant was evaluated by a commercially available enzyme immunoassay kit (Prostaglandin E2 EIA kit Monoclonal, Cayman Chemical), and at the same time was evaluated cell viability by MTT using (3-4,5-[…])-2,5-diphenyl tetrazolium bromide reagent (Sigma-Aldrich). Following the treatment, 20 µL of MTT (5 mg/mL in PBS) was added, and the cells were incubated for additional 3 h at 37°C. […]
The absorbance was measured at 570 nm with a Multiskan™ GO Microplate Spectrophotometer (Thermo Fisher Scientific, USA). […]
MTT (5 mg/mL) was added, and after 1 h (37 °C, 5% CO 2) the medium was replaced with DMSO (100 µL per well). Finally, formazan formation was detected by the measurement of absorbance at […]
Acute cytotoxicity of compounds 3, 6, 7, 9 was analyzed on human monocytes. […]

SMILES | cellular 5-LO product formation in pro-inflammatory macrophages [1] | PGE2 released into the medium [2]
Nc1ccccc1-c1ccc(-c2nnc(NC(=O)c3ccccc3Br)s2)cc1 [compound 7] | potent inhibition of cellular 5-LO product formation | able to suppress the biosynthesis of PGE2 in a concentration-dependent manner
Nc1ccccc1-c1ccc(-c2nnc(NC(=O)c3c(Cl)ccnc3Cl)s2)cc1 [compound 9] | potent inhibition of cellular 5-LO product formation | able to suppress the biosynthesis of PGE2 in a concentration-dependent manner
Cc1cc(C(=O)Nc2nnc(-c3ccc(-c4ccccc4N)cc3)s2)cc(Cl)n1 [compound 6] | potent inhibition of cellular 5-LO product formation | able to suppress the biosynthesis of PGE2 in a concentration-dependent manner
O=C(Nc1nnc(-c2ccc(-c3cccc(O)c3)cc2)s1)c1ccccc1Br [compound 3] | potent inhibition of cellular 5-LO product formation | –

Source: PMC9841589, “Identification of 2-Aminoacyl-1,3,4-thiadiazoles as Prostaglandin E2 and Leukotriene Biosynthesis Inhibitors” (ACS Medicinal Chemistry Letters, 2022)
